The text below walks through data of patent US20250312468A1, “ANTI-PROTAC ANTIBODIES AND COMPLEXES” (Merck Patent GmbH, priority 2021, published 2025).

pIC50: −log10 of the molar value. Where only a bound is given, the exact number is not on record here.

In general, Kd refers to the constant that tells how readily two partners part at equilibrium. As a reminder, the pIC50 is the IC50 on a negative log10 scale, so that one unit is a factor of ten. Low readings indicate a large IC50, high ones a small IC50.

One assay deals with CD33xMIC10. The experiment in a line: SPR affinity of VHH clone (antibody fusion) to PROTACs. As to conditions: CD33xMIC10 immobilized, 25° C., read-out: KD [M] for antibody binding to PROTAC. How it is done: (§1) The kinetic and affinity parameters of protein-PROTAC interactions were evaluated by SPR. The anti-PROTAC VHH clones MIC5-MIC14 were immobilized as CD33 or CLL1 antibody fusion (the manufacturing of fusion proteins and the used linker is described in chapter 7.9) onto a CM5 (Series S) sensor chip via the standard amine coupling procedure, at 25° C. Prior to immobilization, the carboxymethylated surface of the chip was activated with 400 mM 1-ethyl-3-(3-dimethylaminopropyl)-carbodiimide and 100 mM N-hydroxysuccinimide for 7 min. Hit anti-PROTAC VHH as CD33 and CLL1 antibody fusions were diluted to 10 μg/ml in 10 mM Acetate at pH 4.5 and immobilized on the activated surface chip for 7 min, in order to reach 3,000 to 6,000 response units (RU). The remaining activated carboxymethylated groups were blocked with a 10 min injection of 1 M ethanolamine pH 8. HBS-N, which consists of 10 mM HEPES pH 7.4 and 150 mM NaCl, was used as the background buffer during immobilization. PROTACs were prediluted in DMSO, diluted 1:50 in running buffer (12 mM phosphate pH 7.4, 137 mM NaCl, 2.7 mM KCl, 0.05% Tween20, 2% DMSO) and injected at ten different concentrations using two-fold dilution series, from 1 μM to 0.002 μM. A DMSO solvent correction (1%-3%) was performed to account for variations in bulk signal and to achieve high-quality data. Interaction analysis cycles consisted of a 300 sec sample injection (30 μL/min; association phase) followed by 900 sec of buffer flow (dissociation phase).
(§2) All sensorgrams were processed by first subtracting the binding response recorded from the control surface (reference flow-channel), followed by subtracting of the buffer blank injection from the active flow-channel (target protein immobilized). All datasets were fit to a simple 1:1 Langmuir interaction model to determine the kinetic rate constants. Experiments were performed on a Biacore 8k+ (Cytiva, Uppsala, Sweden) at 25° C. and the interactions were evaluated using the provided Biacore Insight Evaluation software.

The target in another assay is CD33xMIC11. Described as above. The following applies: CD33xMIC11 immobilized, 25° C., read-out: KD [M] for antibody binding to PROTAC. How it is done:
as §1, §2

The next assay deals with CD33xMIC12. The assay is described as above. As to conditions: CD33xMIC12 immobilized, 25° C., read-out: KD [M] for antibody binding to PROTAC. The method, then:
as §1, §2

The target of another assay is CD33xMIC13. The assay is described as above. As to conditions: CD33xMIC13 immobilized, 25° C., read-out: KD [M] for antibody binding to PROTAC. The method, then: as §1, §2
Another assay addresses CD33xMIC14. The description is as above. As to conditions: CD33xMIC14 immobilized, 25° C., read-out: KD [M] for antibody binding to PROTAC. The method, then:
as §1, §2

A further assay deals with CD33xMIC5. The assay is described as above. The following applies: CD33xMIC5 immobilized, 25° C., read-out: KD [M] for antibody binding to PROTAC. How it is done:
as §1, §2

Another assay addresses CD33xMIC6. Described as above. As to conditions: CD33xMIC6 immobilized, 25° C., read-out: KD [M] for antibody binding to PROTAC. How it is done: as §1, §2
The next assay addresses CD33xMIC7. The description is as above. The following applies: CD33xMIC7 immobilized, 25° C., read-out: KD [M] for antibody binding to PROTAC. The method, then: as §1, §2
In the next assay the target is CD33xMIC8. The description is as above. As to conditions: CD33xMIC8 immobilized, 25° C., read-out: KD [M] for antibody binding to PROTAC. How it is done:
as §1, §2

Another assay deals with CD33xMIC9. The assay is described as above. As to conditions: CD33xMIC9 immobilized, 25° C., read-out: KD [M] for antibody binding to PROTAC. The method, then:
as §1, §2

The next assay concerns the target CLL1xMIC7. The assay is described as above. As to conditions: CLL1xMIC7 immobilized, 25° C., read-out: KD [M] for antibody binding to PROTAC. How it is done: as §1, §2
In a further assay the test system is A431. The experiment in a line: CellTiter-Glo cell viability assay (VHH-based PAX). The following applies: A431, PROTAC alone. The method, then:
(§3) Several cell viability experiments were performed following the procedure described below: Cells were seeded in different media into white cell culture-treated flat and clear bottom multiwell plates followed by overnight incubation in a humid chamber at 37° C. and 5% CO2. Complexation was performed as described in chapter 7.4.
(§4) The solutions were added to the cells based on the antibody concentration using nanodrop dispension using a Tecan D300e Digital Dispenser and all wells were normalized to the same volume using 0.3% TW20 in PBS pH 7.4 and DMSO to a final solvent concentration of 0.05% DMSO and 0.003% TW20. Incubation was performed at 37° C. at 5% or 10% CO2 dependent on the medium. The assay was developed after 3 days if not otherwise stated using CellTiter-Glo Luminescent Cell Viability Assay as described in the manufacturer's protocol. In brief, the plates were equilibrated to room temperature for 30 minutes. 100 mL CellTiter-Glo Buffer were added to the CellTiter-Glo Substrate Flask and mixed well. 30 μL of the reagent was transferred to each well. After incubation for 3 minutes at room temperature while shaking at 550 rpm, the plate was incubated for another 10 minutes at room temperature. The luminescence was read on an Envision reader from Perkin Elmer. Solvent alone and Bortezomib (1.0E-05 M) served as high control (100% viability) and low control (0% viability), respectively. Raw data were converted into percent cell viability relative to the high and low control, which were set to 100% and 0%, respectively. […] The concentration corresponds to the concentration of PROTACs in the PAX.
A general note: ATP-based viability assays read luminescence as a measure of living cells.

For another assay, the system named is HCC827. The experiment in a line: CellTiter-Glo cell viability assay (VHH-based PAX). The following applies: HCC827, PROTAC alone. How it is done:
as §3, §4

The test system of the next assay is HEPG2 cells. The experiment in a line: CellTiter-Glo cell viability assay (VHH-based PAX). As to conditions: HEPG2, PROTAC alone. How it is done:
as §3, §4

For a further assay, the system named is MCF7. The experiment in a line: CellTiter-Glo cell viability assay (VHH-based PAX). As to conditions: MCF7, PROTAC alone. The method, then: as §3, §4
The test system of another assay is MDAMB468 cells. In words: CellTiter-Glo cell viability assay (VHH-based PAX). The following applies: MDAMB468, PROTAC alone. How it is done: as §3, §4
Another assay deals with SKOV3. In words: CellTiter-Glo cell viability assay (VHH-based PAX). As to conditions: SKOV3, PROTAC alone. The method, then:
as §3, §4

`Cc1ncsc1-c1ccc([C@H](C)NC(=O)[C@@H]2C[C@@H](O)CN2C(=O)[C@@H](NC(=O)COCCCOCCNC(=O)C[C@@H]2N=C(c3ccc(Cl)cc3)c3c(sc(C)c3C)-n3c(C)nnc32)C(C)(C)C)cc1` [ARV771]: the Kd on CD33xMIC10 is 1.4e-07 M; at CD33xMIC11, 3.7e-09 M; at CD33xMIC12 it was 5.6e-09 M; at CD33xMIC13, 1.3e-08 M; at CD33xMIC14, 1.4e-07 M; at CD33xMIC5, 2.7e-07 M. In addition, the Kd on CD33xMIC6 is 5.3e-08 M; on CD33xMIC7, 4.2e-09 M; on CD33xMIC8, 3.1e-08 M; on CD33xMIC9, 4e-09 M; on CLL1xMIC7 it was 8.8e-09 M. In addition, the pIC50 is 7.19 with A431; 7.04 in the assay with HCC827; 7.05 in the assay on HEPG2 cells; 7.59 in the assay with MCF7; 7.31 in the assay with MDAMB468 cells; 7.49 in the assay on SKOV3.
For `Cc1ncsc1-c1ccc(CNC(=O)[C@@H]2C[C@@H](O)CN2C(=O)[C@@H](NC(=O)CCCCCCCCCCNC(=O)c2cc3c(cc2CS(C)(=O)=O)-c2cn(C)c(=O)c4[nH]cc(c24)CN3c2ncc(F)cc2F)C(C)(C)C)cc1` [GNE987], the Kd amounted to 1.3e-08 M at CD33xMIC10; 2e-08 M on CD33xMIC11; 4.2e-08 M on CD33xMIC12; 2.3e-08 M on CD33xMIC13; 1e-08 M on CD33xMIC14; 9.6e-10 M at CD33xMIC5. In addition, the Kd at CD33xMIC6 is 4.1e-08 M; on CD33xMIC7, under 1e-10 M; at CD33xMIC8 it was 6.5e-09 M; on CD33xMIC9 it was 4.3e-08 M; on CLL1xMIC7, under 1e-10 M. Also, the negative logarithm of the IC50 (pIC50) in the assay with A431 is 9.47; in the assay with HCC827, 9.11; with HEPG2 cells, 8.59; with MCF7, 9.82; with MDAMB468 cells it was 9.39; in the assay on SKOV3, 9.21.
